Data on 17 molecules can be found in article PMC12621043, “Un-LOK-ing a New Approach for Conformational Selective Targeting of STK10 (LOK)” (ACS Medicinal Chemistry Letters, 2025).

What all share (experiment): DSF Tm panel
What all share (type): binding
Common to all, as to details: 10 μM compound

In one test the target is T1, MAPK15A (MAPK15HSD) (Homo sapiens, UniProt Q8TD08).
T1 sequence (Q8TD08 13-304 limits assumed): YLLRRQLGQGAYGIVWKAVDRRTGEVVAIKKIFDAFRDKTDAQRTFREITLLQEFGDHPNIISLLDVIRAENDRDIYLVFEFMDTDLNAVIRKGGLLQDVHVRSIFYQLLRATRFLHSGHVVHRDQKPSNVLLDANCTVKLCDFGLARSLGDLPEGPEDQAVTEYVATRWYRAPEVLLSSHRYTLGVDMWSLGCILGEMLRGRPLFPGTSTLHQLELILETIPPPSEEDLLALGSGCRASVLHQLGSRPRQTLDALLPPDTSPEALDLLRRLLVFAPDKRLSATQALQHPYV

In another test the target is T2, STK17AA (Homo sapiens, UniProt Q9UEE5).
T2 construct: purchased in-house DSF kinase panel (SGC-style construct names; the trailing letter is the construct ID)
T2 sequence (Q9UEE5 61-321): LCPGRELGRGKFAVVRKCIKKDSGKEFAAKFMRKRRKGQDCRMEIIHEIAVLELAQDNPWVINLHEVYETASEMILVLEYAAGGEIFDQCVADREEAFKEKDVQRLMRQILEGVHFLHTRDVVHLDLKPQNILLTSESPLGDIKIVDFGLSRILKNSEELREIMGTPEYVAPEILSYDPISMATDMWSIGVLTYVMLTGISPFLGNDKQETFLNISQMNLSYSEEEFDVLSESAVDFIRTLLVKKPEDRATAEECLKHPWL

The next test deals with T3, BMPR2A (Homo sapiens, UniProt Q13873).
T3 construct: purchased in-house DSF kinase panel (SGC-style construct names; the trailing letter is the construct ID)
T3 sequence (Q13873 27-1038): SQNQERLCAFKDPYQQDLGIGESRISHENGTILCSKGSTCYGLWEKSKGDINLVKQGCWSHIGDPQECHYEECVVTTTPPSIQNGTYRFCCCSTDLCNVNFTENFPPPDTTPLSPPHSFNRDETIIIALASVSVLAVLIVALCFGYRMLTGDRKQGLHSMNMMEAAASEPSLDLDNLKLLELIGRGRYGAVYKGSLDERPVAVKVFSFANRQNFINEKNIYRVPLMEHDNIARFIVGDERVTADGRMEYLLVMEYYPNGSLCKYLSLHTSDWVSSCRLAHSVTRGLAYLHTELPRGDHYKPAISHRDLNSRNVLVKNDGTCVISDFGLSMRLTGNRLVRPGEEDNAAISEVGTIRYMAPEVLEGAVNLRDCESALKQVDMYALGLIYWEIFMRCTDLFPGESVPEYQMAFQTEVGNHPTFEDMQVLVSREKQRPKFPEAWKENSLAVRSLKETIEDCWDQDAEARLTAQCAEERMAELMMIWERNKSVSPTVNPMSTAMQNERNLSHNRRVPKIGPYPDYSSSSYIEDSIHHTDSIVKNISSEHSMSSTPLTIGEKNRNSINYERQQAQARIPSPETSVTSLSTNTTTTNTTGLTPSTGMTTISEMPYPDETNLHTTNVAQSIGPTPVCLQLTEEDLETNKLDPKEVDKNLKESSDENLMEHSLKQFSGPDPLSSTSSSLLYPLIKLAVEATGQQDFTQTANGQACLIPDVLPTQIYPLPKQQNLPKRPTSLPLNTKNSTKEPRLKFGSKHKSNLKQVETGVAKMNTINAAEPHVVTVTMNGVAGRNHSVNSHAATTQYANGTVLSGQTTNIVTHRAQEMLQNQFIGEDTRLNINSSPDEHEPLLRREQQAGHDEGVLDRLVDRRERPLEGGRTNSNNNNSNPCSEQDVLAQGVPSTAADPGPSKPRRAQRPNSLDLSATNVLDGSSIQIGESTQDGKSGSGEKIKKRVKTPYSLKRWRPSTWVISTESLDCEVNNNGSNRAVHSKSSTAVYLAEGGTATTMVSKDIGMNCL

A further test concerns the target T4, PAK4A (Homo sapiens, UniProt O96013).
T4 construct: purchased in-house DSF kinase panel (SGC-style construct names; the trailing letter is the construct ID)

The next test addresses T5, K2A2 (CSNK2A2A) (Homo sapiens, UniProt P19784).
T5 construct: purchased in-house DSF kinase panel (SGC-style construct names; the trailing letter is the construct ID)

A further test concerns the target T6, ABL1 (ABL1A) (Homo sapiens, UniProt P00519).
T6 construct: purchased in-house DSF kinase panel (SGC-style construct names; the trailing letter is the construct ID)
T6 sequence (P00519 229-512): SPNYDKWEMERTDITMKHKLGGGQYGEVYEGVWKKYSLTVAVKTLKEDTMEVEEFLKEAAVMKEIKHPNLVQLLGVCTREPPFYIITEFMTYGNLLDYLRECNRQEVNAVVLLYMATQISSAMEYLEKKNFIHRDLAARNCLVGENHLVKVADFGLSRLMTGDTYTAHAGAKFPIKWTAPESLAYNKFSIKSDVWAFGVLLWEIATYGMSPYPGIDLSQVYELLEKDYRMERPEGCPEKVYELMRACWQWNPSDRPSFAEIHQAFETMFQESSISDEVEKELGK

The target of the next test is T7, AKT3A (Homo sapiens, UniProt Q9Y243).
T7 construct: purchased in-house DSF kinase panel (SGC-style construct names; the trailing letter is the construct ID)
T7 sequence (Q9Y243 148-479): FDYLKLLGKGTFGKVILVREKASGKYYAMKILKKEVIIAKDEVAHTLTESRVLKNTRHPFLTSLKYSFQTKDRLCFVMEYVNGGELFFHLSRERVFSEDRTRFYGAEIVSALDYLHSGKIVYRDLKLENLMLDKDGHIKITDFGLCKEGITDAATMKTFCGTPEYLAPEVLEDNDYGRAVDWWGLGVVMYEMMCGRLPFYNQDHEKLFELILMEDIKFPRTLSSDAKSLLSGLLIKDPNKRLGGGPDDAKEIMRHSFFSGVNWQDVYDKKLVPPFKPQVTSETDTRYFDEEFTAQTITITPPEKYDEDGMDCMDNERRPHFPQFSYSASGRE

T4 sequence (O96013 291-591): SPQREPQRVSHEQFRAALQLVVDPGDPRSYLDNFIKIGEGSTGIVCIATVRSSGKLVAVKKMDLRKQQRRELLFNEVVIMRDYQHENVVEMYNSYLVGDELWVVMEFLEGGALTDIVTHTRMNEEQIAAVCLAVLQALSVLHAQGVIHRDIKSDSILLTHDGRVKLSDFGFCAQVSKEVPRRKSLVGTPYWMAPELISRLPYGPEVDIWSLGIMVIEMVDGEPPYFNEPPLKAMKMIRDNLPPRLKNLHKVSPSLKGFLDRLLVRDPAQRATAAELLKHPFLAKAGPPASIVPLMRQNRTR
T5 sequence (P19784 whole entry): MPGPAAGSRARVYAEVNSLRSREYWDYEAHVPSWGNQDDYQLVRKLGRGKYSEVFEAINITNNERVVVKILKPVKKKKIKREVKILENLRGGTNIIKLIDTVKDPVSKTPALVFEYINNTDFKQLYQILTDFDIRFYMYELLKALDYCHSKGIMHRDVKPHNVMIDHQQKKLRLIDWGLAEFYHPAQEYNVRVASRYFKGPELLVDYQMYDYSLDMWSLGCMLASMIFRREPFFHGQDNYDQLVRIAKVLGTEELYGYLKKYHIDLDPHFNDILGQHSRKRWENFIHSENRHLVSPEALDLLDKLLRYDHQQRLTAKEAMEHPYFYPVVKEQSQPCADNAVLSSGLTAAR

`O=C(NCc1ccccc1)Nc1ccc2cc1OCCOCCNc1ccn3ncc-2c3n1` [compound 16]: the ΔTm (in general, the change in melting temperature against a reference sample) at 10 µM on MAPK15A (MAPK15HSD) was 4.9 °C; on STK17AA it was 4.9 °C; on BMPR2A, 4.4 °C; on PAK4A, -0.2 °C; at K2A2 (CSNK2A2A) it was 2.3 °C; at ABL1 (ABL1A) it was 1.2 °C. Moreover, the ΔTm at 10 µM at AKT3A was found to be 0 °C.
As for `O=C(NCc1ccccc1Cl)Nc1ccc2cc1OCCOCCNc1ccn3ncc-2c3n1` [compound 17], the ΔTm at 10 µM worked out at 6 °C at MAPK15A (MAPK15HSD); 2.3 °C on STK17AA; 2.6 °C on BMPR2A; 0 °C on PAK4A; 4 °C at K2A2 (CSNK2A2A); 1.7 °C on ABL1 (ABL1A). In addition, at AKT3A, the ΔTm at 10 µM is -0.3 °C.
Take `O=C(NCc1cccc(Cl)c1)Nc1ccc2cc1OCCOCCNc1ccn3ncc-2c3n1` [compound 18]: the thermal shift (ΔTm) at 10 µM on MAPK15A (MAPK15HSD) came out at 2.3 °C; at STK17AA it was 5.1 °C; on BMPR2A, 2.9 °C; at PAK4A, 0.1 °C; on K2A2 (CSNK2A2A), 3.1 °C; at ABL1 (ABL1A) it was 1.8 °C. Moreover, the shift in melting temperature (ΔTm) at 10 µM at AKT3A is -0.4 °C.
Take `O=C(NCc1ccc(Cl)cc1)Nc1ccc2cc1OCCOCCNc1ccn3ncc-2c3n1` [compound 19]: the ΔTm at 10 µM amounted to 1.8 °C on MAPK15A (MAPK15HSD); 2 °C on STK17AA; 2.3 °C on BMPR2A; 0.1 °C at PAK4A; 3.6 °C at K2A2 (CSNK2A2A); 1.8 °C at ABL1 (ABL1A). In addition, the ΔTm at 10 µM on AKT3A was -0.4 °C.
With `O=C(NCc1ccc(Cl)cc1Cl)Nc1ccc2cc1OCCOCCNc1ccn3ncc-2c3n1` [compound 20], the ΔTm at 10 µM at MAPK15A (MAPK15HSD) was determined as 1.3 °C; at STK17AA, 1.6 °C; at BMPR2A, 1.1 °C; on PAK4A it was 0.8 °C; at K2A2 (CSNK2A2A) it was 3 °C; at ABL1 (ABL1A) it was 2.2 °C. Also, the ΔTm at 10 µM at AKT3A amounted to 0.4 °C.
Turning to `O=C(NCc1ccc(Cl)cc1F)Nc1ccc2cc1OCCOCCNc1ccn3ncc-2c3n1` [compound 21], the ΔTm at 10 µM at MAPK15A (MAPK15HSD) came out at 1.8 °C; at STK17AA, 2 °C; on BMPR2A, 1.8 °C; at PAK4A it was 0.9 °C; on K2A2 (CSNK2A2A), 4.2 °C; at ABL1 (ABL1A) it was 2.3 °C. Further, at AKT3A, the ΔTm at 10 µM was -0.3 °C.
As for `Cc1cc(Cl)ccc1CNC(=O)Nc1ccc2cc1OCCOCCNc1ccn3ncc-2c3n1` [compound 23], the shift in melting temperature (ΔTm) at 10 µM on MAPK15A (MAPK15HSD) was 0.8 °C; at STK17AA it was 0.7 °C; at BMPR2A, 1.5 °C; on PAK4A, 1.2 °C; at K2A2 (CSNK2A2A), 2.8 °C; at ABL1 (ABL1A), 1.7 °C. The ΔTm at 10 µM on AKT3A turned out to be 0.9 °C.
Take `Cc1cc(Br)ccc1CNC(=O)Nc1ccc2cc1OCCOCCNc1ccn3ncc-2c3n1` [compound 24]: the ΔTm at 10 µM on MAPK15A (MAPK15HSD) is 0.7 °C; at STK17AA it was 2.3 °C; on BMPR2A, 2.3 °C; on PAK4A it was 1.9 °C; at K2A2 (CSNK2A2A), 0.5 °C; on ABL1 (ABL1A) it was -0.4 °C. In addition, at AKT3A, the ΔTm at 10 µM was 0.3 °C.
Consider `Cc1ccc(F)cc1CNC(=O)Nc1ccc2cc1OCCOCCNc1ccn3ncc-2c3n1` [compound 26], for which the ΔTm at 10 µM was 2.4 °C on MAPK15A (MAPK15HSD); 5.2 °C at STK17AA; 3.4 °C at BMPR2A; 1.8 °C on PAK4A; 0.9 °C on K2A2 (CSNK2A2A); 0.6 °C at ABL1 (ABL1A). Moreover, the ΔTm at 10 µM on AKT3A came to 1.8 °C.
Turning to `O=C(NCc1ccccc1C(F)(F)F)Nc1ccc2cc1OCCOCCNc1ccn3ncc-2c3n1` [compound 27], the ΔTm at 10 µM on MAPK15A (MAPK15HSD) is 2.4 °C; on STK17AA, 4 °C; at BMPR2A, 2.8 °C; at PAK4A, 2.1 °C; at K2A2 (CSNK2A2A), 0.7 °C; at ABL1 (ABL1A), 2.4 °C. For the same molecule, the ΔTm at 10 µM at AKT3A is -0.1 °C.
Take `O=C(NCc1ccc(C(F)(F)F)cc1)Nc1ccc2cc1OCCOCCNc1ccn3ncc-2c3n1` [compound 28]: the ΔTm at 10 µM on MAPK15A (MAPK15HSD) was 0.5 °C; at STK17AA, 2.4 °C; at BMPR2A, 3.2 °C; at PAK4A, 2.4 °C; at K2A2 (CSNK2A2A) it was 0.5 °C; at ABL1 (ABL1A), 0.9 °C. Further, the ΔTm at 10 µM on AKT3A was found to be 0.4 °C.
For the molecule `COc1ccccc1CNC(=O)Nc1ccc2cc1OCCOCCNc1ccn3ncc-2c3n1` [compound 29], the ΔTm at 10 µM at MAPK15A (MAPK15HSD) was 3.3 °C; at STK17AA, 3.1 °C; at BMPR2A it was 4 °C; on PAK4A, 1.3 °C; at K2A2 (CSNK2A2A), 0.3 °C; on ABL1 (ABL1A), 0.7 °C. The ΔTm at 10 µM on AKT3A was 0.3 °C.
Turning to `COc1cccc(CNC(=O)Nc2ccc3cc2OCCOCCNc2ccn4ncc-3c4n2)c1` [compound 30], the ΔTm at 10 µM at MAPK15A (MAPK15HSD) was 2.3 °C; at STK17AA it was 5.8 °C; at BMPR2A, 4.3 °C; at PAK4A it was 1.5 °C; at K2A2 (CSNK2A2A), 0.8 °C; at ABL1 (ABL1A), 1.5 °C. Further, the ΔTm at 10 µM on AKT3A was 0.2 °C.
As to `COc1ccc(CNC(=O)Nc2ccc3cc2OCCOCCNc2ccn4ncc-3c4n2)cc1` [compound 31], the thermal shift (ΔTm) at 10 µM at MAPK15A (MAPK15HSD) worked out at 4.1 °C; at STK17AA, 5.1 °C; at BMPR2A, 4.6 °C; on PAK4A, 1.7 °C; at K2A2 (CSNK2A2A), 2.5 °C; at ABL1 (ABL1A) it was 1.7 °C. Further, the ΔTm at 10 µM at AKT3A was 1.6 °C.
Take `COc1ccc(CNC(=O)Nc2ccc3cc2OCCOCCNc2ccn4ncc-3c4n2)cc1F` [compound 32]: the ΔTm at 10 µM was 2.5 °C at MAPK15A (MAPK15HSD); 5.3 °C at STK17AA; 4.4 °C at BMPR2A; 2 °C on PAK4A; 2.2 °C on K2A2 (CSNK2A2A); 1.7 °C at ABL1 (ABL1A). Also, on AKT3A, the ΔTm at 10 µM worked out at 0.8 °C.
For `COc1cc(CNC(=O)Nc2ccc3cc2OCCOCCNc2ccn4ncc-3c4n2)ccc1F` [compound 33], the ΔTm at 10 µM on MAPK15A (MAPK15HSD) came out at 3.3 °C; at STK17AA it was 7.6 °C; on BMPR2A it was 3.7 °C; on PAK4A it was 2.2 °C; on K2A2 (CSNK2A2A) it was 1.7 °C; on ABL1 (ABL1A) it was 1.5 °C. The ΔTm at 10 µM on AKT3A is 0.9 °C.
Consider `C[C@H](NC(=O)Nc1ccc2cc1OCCOCCNc1ccn3ncc-2c3n1)c1ccccc1` [compound 34], for which the ΔTm at 10 µM on MAPK15A (MAPK15HSD) stood at 2.1 °C; on STK17AA, 6 °C; on BMPR2A, 5.1 °C; on PAK4A it was 1.4 °C; on K2A2 (CSNK2A2A), 1.2 °C; at ABL1 (ABL1A), 1.3 °C. Also, on AKT3A, the thermal shift (ΔTm) at 10 µM amounted to 0.4 °C.
